Experimental data from patent US20210024507A1, “Compounds” (Step Pharma S.A.S., priority 2018, published 2021).
Where two headings read alike, the source gives them in different places.

Target: T1, human CTPS1 (Homo sapiens, UniProt P17812)
T1 construct: purchased Proteros biostructures GmbH
T1 sequence (P17812 1-591): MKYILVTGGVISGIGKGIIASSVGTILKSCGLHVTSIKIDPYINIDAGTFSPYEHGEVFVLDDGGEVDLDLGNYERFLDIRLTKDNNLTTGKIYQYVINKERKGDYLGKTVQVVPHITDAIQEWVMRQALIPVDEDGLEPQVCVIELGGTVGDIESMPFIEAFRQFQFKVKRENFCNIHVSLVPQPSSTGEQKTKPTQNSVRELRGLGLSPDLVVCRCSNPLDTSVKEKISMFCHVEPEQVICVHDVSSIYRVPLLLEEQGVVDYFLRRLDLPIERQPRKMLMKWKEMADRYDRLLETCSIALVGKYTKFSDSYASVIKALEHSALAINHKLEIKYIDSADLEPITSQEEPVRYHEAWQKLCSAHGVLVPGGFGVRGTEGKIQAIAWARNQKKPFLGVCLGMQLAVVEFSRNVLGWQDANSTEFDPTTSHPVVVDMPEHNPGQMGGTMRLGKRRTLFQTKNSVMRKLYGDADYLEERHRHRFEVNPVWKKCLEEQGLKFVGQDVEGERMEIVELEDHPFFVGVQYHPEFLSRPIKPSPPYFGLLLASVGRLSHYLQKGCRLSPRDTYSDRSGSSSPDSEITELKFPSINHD
Test: Human CTPS1 enzyme inhibition (ADP-Glo Max assay)
Format: biochemical
Conditions: human full length CTPS1, 25° C.
Protocol: The enzyme inhibitory activities of compounds invented against the target of interest were determined using the ADP-GIoTM Max assay (Promega, UK). Assays for human CTPS1 were performed in lx assay buffer containing 50mM Tris, 10mM MgCl2, 0.01% Tween-20, pH to 8.0 accordingly. Finally, immediately before use, L-cysteine was added to the lx assay buffer to a final concentration of 2mM. All reagents are from Sigma-Aldrich unless specified otherwise. Human full length active C-terminal FLAG-Hiss-tag CTPS1 (UniProtKB - P17812, CTPS[1-591]-[…]) was obtained from Proteros biostructures GmbH.
Assay Procedure 3× human CTPS1 protein was prepared in lx assay buffer to the final working protein concentration required for the reaction. A 2uL volume per well of 3x human CTPS1 protein was mixed with 2uL per well of 3× test compound (compound prepared in lx assay buffer to an appropriate final 3× compound concentration respective to the concentration response curve designed for the compounds under test) for 10 minutes at 25° C. The enzymatic reaction was then initiated by addition of a 2uL per well volume of a pre-mixed substrate mix (UltraPure ATP from ADP-GIo™ Max kit (0.31mM), GTP (0.034mM), UTP (0.48mM) and L-glutamine (0.186mM)) and the mixture was incubated for an appropriate amount of time within the determined linear phase of the reaction at 25° C. under sealed plate conditions with constant agitation at 500 revolutions per minute (rpm). ADP-GIo™ Max reagent was added for 60 minutes ([…] per well) and subsequently ADP-GIo™ Max development reagent was added for 60 minutes (12uL per well) prior to signal detection in a microplate reader (EnVision® Multilabel Reader, Perkin Elmer). Following each reagent addition over the course of the assay, assay plates were pulse centrifuged for 30 seconds at 500rpm.
In all cases, the enzyme converts ATP to ADP and the ADP-GIo™ Max reagent subsequently depletes any remaining endogenous ATP in the reaction system. The ADP-GIo™ Max detection reagent converts the ADP that has been enzymatically produced back into ATP and using ATP as a substrate together with luciferin for the enzyme luciferase, light is generated which produces a detectable luminescence. […] The percentage inhibition produced by each concentration of compound was calculated using the equation shown below: […]
Percentage inhibition was then plotted against compound concentration, and the 50% inhibitory concentration (IC50) was determined from the resultant concentration-response curve.

[1] = read-out: CTPS1 (Human CTPS1 Enzyme Inhibition, IC50 grouped by potency range)

In the case of `CCOc1cncc(-c2ccc(C(=O)NC(CC)c3cncc(NS(=O)(=O)C4CC4)n3)c(F)c2)n1` (single isomer, unassigned) [P224, N-(1-(6-(cyclopropanesulfonamido)pyrazin-2-yl)propyl)-4-(6-ethoxypyrazin-2-yl)-2-fluorobenzamide], the IC50 [1] is reported as 0.1 to 1 µM.

With `CCC(C(=O)Nc1ccc(-c2cnccn2)cc1F)c1ccnc(NS(=O)(=O)C2CC2)n1` (stereo not shown) [P6, 2-(2-(Cyclopropanesulfonamido)pyrimidin-4-yl)-N-(2-fluoro-4-(pyrazin-2-yl)phenyl)butanamide] the IC50 [1] was 0.1 to 1 µM.

`CCC(C(=O)Nc1ccc(-c2cncc(C(F)(F)F)c2)cc1)c1ccnc(NS(=O)(=O)C2CC2)n1` (stereo not shown) [P7, 2-(2-(Cyclopropanesulfonamido)pyrimidin-4-yl)-N-(4-(5-(trifluoromethyl)pyridin-3-yl)phenyl)butanamide] showed an IC50 [1] of 0.1 to 1 µM.

`CCC(C(=O)Nc1ccc(-c2cncc(OCC(F)(F)F)c2)cn1)c1ccnc(NS(=O)(=O)C2CC2)n1` (stereo not shown) [P85] gave an IC50 [1] of 0.1 to 1 µM.

`CCC(C(=O)Nc1ccc(-c2cccnc2)cn1)c1ccnc(NS(=O)(=O)C2CC2)n1` (stereo not shown) [P86, N-([3,3′-bipyridin]-6-yl)-2-(2-(cyclopropanesulfonamido)pyrimidin-4-yl)butanamide] was tested, and the IC50 [1] was 1 to 10 µM.

In the case of `CCC(C(=O)Nc1ccc(-c2cncc(Cl)c2)cc1F)c1ccnc(NS(=O)(=O)C2CC2)n1` (stereo not shown) [P90, N-(4-(5-chloropyridin-3-yl)-2-fluorophenyl)-2-(2-(cyclopropanesulfonamido)pyrimidin-4-yl)butanamide], the IC50 [1] is reported as 0.1 to 1 µM.

Molecule `CCC(C(=O)Nc1ccc(-c2cncc(OCC(F)(F)F)c2)cc1F)c1ccnc(NS(=O)(=O)C2CC2)n1` (stereo not shown) [P91, 2-(2-(cyclopropanesulfonamido)pyrimidin-4-yl)-N-(2-fluoro-4-(5-(2,2,2-trifluoroethoxy)pyridin-3-yl)phenyl)butanamide] has an IC50 [1] of 0.1 to 1 µM.

Molecule `CCC(C(=O)Nc1ccc(-c2cncc(OC(C)C)c2)cc1F)c1ccnc(NS(=O)(=O)C2CC2)n1` (stereo not shown) [P92, 2-(2-(cyclopropanesulfonamido)pyrimidin-4-yl)-N-(2-fluoro-4-(5-isopropoxypyridin-3-yl)phenyl)butanamide] has an IC50 [1] of 0.1 to 1 µM.

With `CCC(C(=O)Nc1ccc(-c2cccnc2)cc1F)c1ccnc(NS(=O)(=O)C2CC2)n1` (stereo not shown) [P93, 2-(2-(cyclopropanesulfonamido)pyrimidin-4-yl)-N-(2-fluoro-4-(pyridin-3-yl)phenyl)butanamide] the IC50 [1] was 1 to 10 µM.

`CCC(C(=O)Nc1ccc(-c2cncc(C(F)(F)F)n2)cc1F)c1ccnc(NS(=O)(=O)C2CC2)n1` (stereo not shown) [P94, 2-(2-(cyclopropanesulfonamido)pyrimidin-4-yl)-N-(2-fluoro-4-(6-(trifluoromethyl)pyrazin-2-yl)phenyl)butanamide] was tested, and the IC50 [1] was ≤ 0.1 µM.

With `CCC(C(=O)Nc1ccc(-c2cncc(OC(C)C)n2)cc1F)c1ccnc(NS(=O)(=O)C2CC2)n1` (stereo not shown) [P97, 2-(2-(cyclopropanesulfonamido)pyrimidin-4-yl)-N-(2-fluoro-4-(6-isopropoxypyrazin-2-yl)phenyl)butanamide] the IC50 [1] was ≤ 0.1 µM.

`CCC(C(=O)Nc1ccc(-c2cncc(C#N)c2)cc1)c1ccnc(NS(=O)(=O)C2CC2)n1` (stereo not shown) [P99, N-(4-(5-cyanopyridin-3-yl)phenyI)-2-(2-(cyclopropanesulfonamido)pyrimidin-4-yl)butanamide] was tested, and the IC50 [1] was 0.1 to 1 µM.

In the case of `CCC(C(=O)Nc1ccc(-c2cncc(OCC(F)(F)F)c2)cc1)c1ccnc(NS(=O)(=O)C2CC2)n1` (stereo not shown) [P100, 2-(2-(cyclopropanesulfonamido)pyrimidin-4-yl)-N-(4-(5-(2,2,2-trifluoroethoxy)pyridin-3-yl)phenyl)butanamide], the IC50 [1] is reported as 0.1 to 1 µM.

Molecule `CCC(C(=O)Nc1ccc(-c2cncc(OC(C)C)c2)cc1)c1ccnc(NS(=O)(=O)C2CC2)n1` (stereo not shown) [P101, 2-(2-(cyclopropanesulfonamido)pyrimidin-4-yl)-N-(4-(5-isopropoxypyridin-3-yl)phenyl)butanamide] has an IC50 [1] of 0.1 to 1 µM.

For `CCC(C(=O)Nc1ccc(-c2cccnc2)cc1)c1ccnc(NS(=O)(=O)C2CC2)n1` (stereo not shown) [P102, 2-(2-(cyclopropanesulfonamido)pyrimidin-4-yl)-N-(4-(pyridin-3-yl)phenyl)butanamide], the IC50 [1] was 0.1 to 1 µM.

Molecule `CCC(C(=O)Nc1ccc(-c2cncc(Cl)n2)cc1)c1ccnc(NS(=O)(=O)C2CC2)n1` (stereo not shown) [P104, N-(4-(6-chloropyrazin-2-yl)phenyl)-2-(2-(cyclopropanesulfonamido)pyrimidin-4-yl)butanamide] has an IC50 [1] of 0.1 to 1 µM.

With `CCC(C(=O)Nc1ccc(-c2cncc(OC)n2)cc1)c1ccnc(NS(=O)(=O)C2CC2)n1` (stereo not shown) [P106, 2-(2-(cyclopropanesulfonamido)pyrimidin-4-yl)-N-(4-(6-methoxypyrazin-2-yl)phenyl)butanamide] the IC50 [1] was ≤ 0.1 µM.

For `CCC(C(=O)Nc1ccc(-c2cncc(OC(C)C)n2)cc1)c1ccnc(NS(=O)(=O)C2CC2)n1` (stereo not shown) [P107, 2-(2-(cyclopropanesulfonamido)pyrimidin-4-yl)-N-(4-(6-isopropoxypyrazin-2-yl)phenyl)butanamide], the IC50 [1] was ≤ 0.1 µM.

With `CCC(C(=O)Nc1ccc(-c2cnccn2)cc1)c1ccnc(NS(=O)(=O)C2CC2)n1` (stereo not shown) [P109, 2-(2-(cyclopropanesulfonamido)pyrimidin-4-yl)-N-(4-(pyrazin-2-yl)phenyl)butanamide] the IC50 [1] was 0.1 to 1 µM.

With `CC(C(=O)Nc1ccc(-c2cccnc2)cc1)c1ccnc(NS(=O)(=O)C2CC2)n1` (stereo not shown) [P111, 2-(2-(cyclopropanesulfonamido)pyrimidin-4-yl)-N-(4-(pyridin-3-yl)phenyl)propanamide] the IC50 [1] was 0.1 to 1 µM.

Work on `CCC(C(=O)Nc1ccc(-c2cncc(C(F)(F)F)n2)cn1)c1cccc(NS(=O)(=O)C2CC2)n1` (stereo not shown) [P187, 2-(6-(cyclopropanesulfonamido)pyridin-2-yl)-N-(5-(6-(trifluoromethyl)pyrazin-2-yl)pyridin-2-yl)butanamide] yielded an IC50 [1] of 0.1 to 1 µM.

For `CCC(C(=O)Nc1ccc(-c2cncc(Cl)c2)cc1)c1cccc(NS(=O)(=O)C2CC2)n1` (stereo not shown) [P189, N-(4-(5-chloropyridin-3-yl)phenyl)-2-(6-(cyclopropanesulfonamido)pyridin-2-yl)butanamide], the IC50 [1] was 1 to 10 µM.

`CCOc1cncc(-c2ccc(NC(=O)C(CC)c3cccc(NS(=O)(=O)C4CC4)n3)c(F)c2)n1` (stereo not shown) [P190, 2-(6-(cyclopropanesulfonamido)pyridin-2-yl)-N-(4-(6-ethoxypyrazin-2-yl)-2-fluorophenyl)butanamide] showed an IC50 [1] of 0.1 to 1 µM.

`CS(=O)(=O)Nc1cncc(CC(=O)Nc2ccc(-c3cccnc3)cc2)n1` [P194, 2-(6-(methylsulfonamido)pyrazin-2-yl)-N-(4-(pyridin-3-yl)phenyl)acetamide] was tested, and the IC50 (numeric value printed instead of class symbol, read-out: CTPS1 (Human CTPS1 Enzyme Inhibition, IC50)) was 58.6 µM.

For `CCOc1cncc(-c2ccc(NC(=O)C(C)(CCOC)c3cncc(NS(C)(=O)=O)n3)nc2)n1` (stereo not shown) [P199, N-(5-(6-ethoxypyrazin-2-yl)pyridin-2-yl)-4-methoxy-2-methyl-2-(6-(methylsulfonamido)pyrazin-2-yl)butanamide], the IC50 [1] was 0.1 to 1 µM.

`CCOc1cncc(-c2ccc(NC(=O)C(OC)c3cncc(NS(=O)(=O)C4CC4)n3)nc2)n1` (stereo not shown) [P203, 2-(6-(cyclopropanesulfonamido)pyrazin-2-yl)-N-(5-(6-ethoxypyrazin-2-yl)pyridin-2-yl)-2-methoxyacetamide] was tested, and the IC50 [1] was ≤ 0.1 µM.

In the case of `CCOc1cncc(-c2ccc(NC(=O)C(OC)c3cncc(NS(=O)(=O)C4CC4)n3)cc2)n1` (stereo not shown) [P204, 2-(6-(cyclopropanesulfonamido)pyrazin-2-yl)-N-(4-(6-ethoxypyrazin-2-yl)phenyl)-2-methoxyacetamide], the IC50 [1] is reported as ≤ 0.1 µM.

For `CCOc1cncc(-c2ccc(NC(=O)C(C)(OC)c3cncc(NS(=O)(=O)C4CC4)n3)nc2)n1` (stereo not shown) [P205, 2-(6-(cyclopropanesulfonamido)pyrazin-2-yl)-N-(5-(6-ethoxypyrazin-2-yl)pyridin-2-yl)-2-methoxypropanamide], the IC50 [1] was ≤ 0.1 µM.
